# Target: T1, human TREK-1 (Homo sapiens, UniProt O95069)
# T1 construct: expressed in transfected cells
# T1 sequence (O95069 1-426): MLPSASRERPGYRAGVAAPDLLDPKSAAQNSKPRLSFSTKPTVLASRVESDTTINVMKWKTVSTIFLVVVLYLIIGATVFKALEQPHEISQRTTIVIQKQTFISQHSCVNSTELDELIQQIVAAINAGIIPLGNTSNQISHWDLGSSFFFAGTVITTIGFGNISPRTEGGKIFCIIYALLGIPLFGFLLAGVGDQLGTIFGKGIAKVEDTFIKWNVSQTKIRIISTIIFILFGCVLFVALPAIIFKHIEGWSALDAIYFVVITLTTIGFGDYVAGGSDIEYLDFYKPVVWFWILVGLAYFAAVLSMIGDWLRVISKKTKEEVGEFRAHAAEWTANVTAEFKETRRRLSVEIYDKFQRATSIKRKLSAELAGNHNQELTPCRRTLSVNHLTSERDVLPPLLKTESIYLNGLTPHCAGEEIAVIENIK
# Assay: TREK-1 Thallium (Tl+) flux assay, Method 1
# Type: cell-based
# Conditions: TREK-1 Thallium (Tl+) flux assay; values without footnote *12 are Method 1
# Summary of the method: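 Readout: Thallos fluorescence ratio, taken 25 s post-thallium relative to the pre-thallium baseline average, then converted to % inhibition. Cells were CHO-K1 stably expressing human TREK-1, dye-loaded and exposed to test compound (vehicle 0.3% DMSO) for 10 min prior to thallium stimulation.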
row,SMILES,IC50
1,"Cc1cc(C#Cc2ccccc2)cnc1NC(=O)c1c(Cl)cnn1CCCC#N [Compound 167, 4-chloro-1-(3-cyanopropyl)-N-(3-methyl-5-(phenylethynyl)pyridin-2-yl)-1H-pyrazole-5-carboxamide]",270 nM
2,"N#CC1(Cn2ncc(Cl)c2C(=O)Nc2c(F)cc(C#Cc3ccccc3)cc2F)CC1 [Compound 168, 4-chloro-1-((1-cyanocyclopropyl)methyl)-N-(2,6-difluoro-4-(phenylethynyl)phenyl)-1H-pyrazole-5-carboxamide]",270 nM
3,Cc1cc(C#Cc2ccccc2)cnc1NC(=O)c1c(Cl)cnn1C1CCN(C(=O)C(C)C)CC1 [Compound 169],270 nM
4,"CC(C)(C)OC(=O)N1C[C@H]2C[C@H](n3ncc(Cl)c3C(=O)Nc3ncc(C#Cc4ccccc4)cc3F)C[C@H]2C1 [Compound 170, tert-butyl (3aR,5s,6aS)-5-(4-chloro-5-{[3-fluoro-5-(phenylethynyl)pyridin-2-yl]carbamoyl}-1H-pyrazol-1-yl)hexahydrocyclopenta[c]pyrrole-2(1H)-carboxylate]",270 nM
5,"Cc1cc(C#Cc2ccccc2)cnc1NC(=O)c1c(Cl)cnn1C1CCN(C(=O)CC(F)(F)F)CC1 [Compound 171, 4-chloro-N-(3-methyl-5-(phenylethynyl)pyridin-2-yl)-1-(1-(3,3,3-trifluoropropanoyl)piperidin-4-yl)-1H-pyrazole-5-carboxamide]",270 nM
6,"Cc1cc(C#Cc2ccccc2)cnc1NC(=O)c1c(Cl)cnn1CCC1CCN(C(=O)C2CC2)CC1 [Compound 172, 4-chloro-1-(2-(1-(cyclopropanecarbonyl)piperidin-4-yl)ethyl)-N-(3-methyl-5-(phenylethynyl)pyridin-2-yl)-1H-pyrazole-5-carboxamide]",270 nM
7,"CC(=O)N1CC2(CC(n3ncc(Cl)c3C(=O)Nc3ncc(C#Cc4ccccc4)cc3C)C2)C1 [Compound 173, 1-(2-acetyl-2-azaspiro[3.3]heptan-6-yl)-4-chloro-N-(3-methyl-5-(phenylethynyl)pyridin-2-yl)-1H-pyrazole-5-carboxamide]",270 nM
8,"Cc1cc(C#Cc2cccc(F)c2)cnc1NC(=O)c1c(Cl)cnn1CC1CCN(C(=O)C2CC2)CC1 [Compound 174, 4-chloro-1-((1-(cyclopropanecarbonyl)piperidin-4-yl)methyl)-N-(5-((3-fluorophenyl)ethynyl)-3-methylpyridin-2-yl)-1H-pyrazole-5-carboxamide]",270 nM
9,"CC(C)C(=O)N1CCC(n2ncc(Cl)c2C(=O)Nc2ncc(C#Cc3cccs3)cc2F)CC1 [Compound 175, 4-chloro-N-(3-fluoro-5-(thiophen-2-ylethynyl)pyridin-2-yl)-1-(1-isobutyrylpiperidin-4-yl)-1H-pyrazole-5-carboxamide]",270 nM
10,"CC(=O)N1CCCC(Cn2ncc(Cl)c2C(=O)Nc2ncc(C#Cc3ccccc3)cc2C)C1 (stereo not shown) [Compound 176, 1-((1-acetylpiperdin-3-yl)methyl)-4-chloro-N-(3-methyl-5-(phenylethynyl)pyridin-2-yl)-1H-pyrazole-5-carboxamide]",270 nM
11,"CC(=O)N1CCCC(Cn2ncc(Cl)c2C(=O)Nc2ncc(C#Cc3ccccc3)cc2F)C1 (stereo not shown) [Compound 177, 1-((1-acetylpiperidin-3-yl)methyl)-4-chloro-N-(3-fluoro-5-(phenylethynyl)pyridin-2-yl)-1H-pyrazole-5-carboxamide]",270 nM
12,"CC(=O)N1CC[C@@H](Cn2ncc(Cl)c2C(=O)Nc2ncc(C#Cc3ccccc3)cc2F)[C@H](F)C1 [Compound 178, 1-(((3S,4S)-1-acetyl-3-fluoropiperidin-4-yl)methyl)-4-chloro-N-(3-fluoro-5-(phenylethynyl)pyridin-2-yl)-1H-pyrazole-5-carboxamide]",270 nM
13,"CC(=O)N1CCC(C#N)(Cn2ncc(Cl)c2C(=O)Nc2ncc(C#Cc3ccc(F)cc3)cc2C)CC1 [Compound 179, 1-((1-acetyl-4-cyanopiperidin-4-yl)methyl)-4-chloro-N-(5-((4-fluorophenyl)ethynyl)-3-methylpyridin-2-yl)-1H-pyrazole-5-carboxamide]",270 nM
